Data taken from publication doi:10.1101/2024.12.25.630315 (bioRxiv, 2024).
Blank lines part the entries; values can stand above or below the molecule they belong to. Numbered stars: 1 amine (or outer) side, 2 acyl side, 3 side chain; on linkers, the order of the positions; unused ones are H or OH. Bridge positions count the residues as written; N and C are the ends. Square brackets hold non-standard residues; d marks the D form. Primed or numbered codes have the meaning given here. * marks the point of attachment. TATA = O=C(CC[*:1])N1CN(C(=O)CC[*:2])CN(C(=O)CC[*:3])C1; NOTA = O=C(O)CN1CCN(CC(=O)O)CCN(CC(=O)*)CC1; Hyp = O=C(O)[C@@H]1C[C@@H](O)CN1; hArg = N=C(N)NCCCC[C@H](N)C(=O)O; PEG12′ = not defined here

How the values were obtained:
T24 cells = test: In vitro binding of [^68Ga]AJ647 to T24 cells; type: cell-based; details: ~37 kBq (~1 μCi), 4°C, 1 hour, mean ± SD
Method: […] After incubation, cells were washed three times with ice cold PBS containing 0.1% Tween®20 and counted on an automated gamma counter. All cell radioactivity uptake studies were performed in quadruplicate for each cell line and repeated three times.

in vivo = details: male, mouse, iv, 1.85 MBq, total radioactivity
Method: All mouse studies were conducted through Johns Hopkins University Animal Care and Use Committee (ACUC) approved protocols. Protocol M021M175 was approved by Chair, ACUC. Xenografts were established in five-to-six-weeks old, male, non-obese, diabetic, severe-combined immunodeficient gamma (NSG) mice obtained from the Johns Hopkins University Immune Compromised Animal Core.
Mice were injected with cancer cells subcutaneously in […] PBS (top right flank) for all tumor models. Following cell numbers were used: HT1376 (4 M), UC9 (3 M), UC14 (3 M), RT112 (1.5 M), T24(3 M), SCaBER (4 M). Mice with tumor volumes of 100–200 mm^3 were used for all experiments. A minimum of 4 mice were used for all biodistribution studies. A minimum of 7 mice were used in pharmacodynamics experiment to account for greater variability.
To validate imaging studies, ex vivo biodistribution studies were conducted in mice with tumors of size 100–200 mm^3. Mice received ~50 μCi (1.85 MBq) of [^68Ga]AJ647 in […] of 5% ethanol in saline intravenously and mice were sacrificed at 5–180 min after [^68Ga]AJ647 injection for pharmacokinetic evaluation (n=4 per timepoint). In all other studies, 60 min time-point was chosen. Selected tissues (Blood, Skin, Muscle, Bone, Salivary glands, Tumor, Lungs, Heart, Liver, Pancreas, Spleen, Kidneys, Bladder, Testicles) were collected, weighed, counted, and their %IA/g values calculated as described previously (PMID: 37793856). For EV pharmacodynamics studies, fewer organs were harvested to accommodate more number of mice.

[1] = type: physicochemical
Method: The ^68Ge/^68Ga generator was manually eluted using […] of 0.1M HCl (Ultrapure trace-metal-free) in four different fractions (2.4 mL, 1 mL, 1 mL, and 1.4 mL). […] The reaction mixture was incubated for 12 min at 65 °C in a temperature-controlled heating block and purified on a RP-HPLC system using a semi-preparative C-18 Luna column ([…], 10 × 250 mm Phenomenex, Torrance, CA). The HPLC condition was gradient elution starting with 20% acetonitrile: water (0.1% formic acid) and reaching 60% acetonitrile: water (0.1% formic acid) in 20 min at a flow rate of 5 mL/min. […] The desired radiolabeled fraction was concentrated under a stream of N2 at 60 °C, formulated in 10% EtOH in saline, and used for in vitro and in vivo studies. The whole radiolabeling process was completed in approximately 35 min. Quality control, stability studies, and chemical identity were also performed on the same HPLC system using the same HPLC gradient as described above.

mouse Nectin-4 = target: T1, mouse Nectin-4 (Mus musculus, UniProt Q8R007); test: Surface plasmon resonance, mouse Nectin-4; type: binding; details: SPR Biacore T200, CM5 chip, 25 °C, His-tagged mouse Nectin-4 captured, PBS-P+1% DMSO, 1:1 kinetics fit; mean±SD n=3
T1 construct: purchased R&D systems 3116-N4–050
T1 sequence (Q8R007 31-347 limits assumed): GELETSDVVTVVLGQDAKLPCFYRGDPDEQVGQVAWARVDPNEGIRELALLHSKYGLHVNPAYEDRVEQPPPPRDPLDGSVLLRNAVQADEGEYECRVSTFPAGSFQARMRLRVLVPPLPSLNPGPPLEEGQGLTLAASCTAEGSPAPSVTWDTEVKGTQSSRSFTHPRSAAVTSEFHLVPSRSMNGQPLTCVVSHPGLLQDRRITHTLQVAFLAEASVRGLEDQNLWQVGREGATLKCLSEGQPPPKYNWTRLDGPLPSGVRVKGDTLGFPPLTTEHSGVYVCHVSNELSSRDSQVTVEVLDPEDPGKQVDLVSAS
Method: (§1) The affinity of AJ647 for human and mouse Nectin-4 recombinant proteins were evaluated by SPR. The experiments were conducted using a Biacore T200 instrument with a CM5 chip at 25 °C. The ligands used were His-Tagged human Nectin-4 (R&D systems, catalog # 2659-N4–050, 44 kDa, 0.2 mg/ml stock concentration) and mouse Nectin-4 proteins (R&D systems, catalog # 3116-N4–050, 45 kDa, 0.2 mg/ml stock concentration), which were immobilized onto the CM5 chip. AJ647 (3057.5 Da, 10 mM stock concentration) was used as the analyte, which flowed over the ligand immobilized surface. FC2 and FC4 was used as the experimental flow cell, while FC1 and FC3 served as the reference. Anti-His antibody (1 mg/ml stock concentration) was immobilized on all FCs using standard amine coupling chemistry. […] Human Nectin-4 was captured onto FC2 at a level of ~600 RU, with a 1:20 dilution and 10 μg/ml diluted concentration in PBS-P. Mouse Nectin-4 was captured onto FC4 at a level of 600 RU, with a 1:20 dilution and 10 μg/ml diluted concentration in PBS-P. The theoretical Rmax values were calculated based on the captured response values and are presented in table below, assuming a 1:1 interaction mechanism. […] All association and dissociation kinetics were evaluated by 1:1 kinetics model fitting.

human Nectin-4 = target: T2, human Nectin-4 (Homo sapiens, UniProt Q96NY8); test: Surface plasmon resonance, human Nectin-4; type: binding; details: SPR Biacore T200, CM5 chip, 25 °C, His-tagged human Nectin-4 captured, PBS-P+1% DMSO, 1:1 kinetics fit; mean±SD n=3
T2 construct: purchased R&D systems 2659-N4–050
T2 sequence (Q96NY8 32-349 limits assumed): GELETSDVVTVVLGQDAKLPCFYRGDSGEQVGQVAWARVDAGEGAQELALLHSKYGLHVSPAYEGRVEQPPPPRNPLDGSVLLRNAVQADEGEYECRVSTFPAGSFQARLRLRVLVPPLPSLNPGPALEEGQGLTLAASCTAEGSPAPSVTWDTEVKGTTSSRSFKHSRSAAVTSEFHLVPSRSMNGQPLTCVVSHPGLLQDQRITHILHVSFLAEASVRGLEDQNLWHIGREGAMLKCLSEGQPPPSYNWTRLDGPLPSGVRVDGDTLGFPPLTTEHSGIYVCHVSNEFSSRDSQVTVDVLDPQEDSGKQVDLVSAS
Method: as §1

Nectin-4 = details: cited from earlier work
Source text: A PEG linker was attached to the N-terminal cysteine residue of AJ632 (Fig. 2A). The free terminal amine was then conjugated to a NOTA chelator, enabling the successful radiolabeling with gallium-68 to produce [^68Ga]AJ647 and its non-radioactive analog [^natGa]AJ647. The radiolabeling process, performed as previously described ([16]), yielded [^68Ga]AJ647 with an 71.2±9.4% decay-corrected yield and 97±0.8% purity (n=20), ach ...

[2] = target: T3, Nectin-4 on urothelial carcinoma cells (human (endogenous in HT1376, UC14, UC9, …, UniProt Q96NY8 32-510)); test: flow cytometry on cells; competition: HT1376 cells with non-radioactive AJ647 5.4 uM to 0.01 nM for 30 min at 4 °C, washed, then EV-FITC for 30 min at 4 °C; mean fluorescence intensity as percent of 0 nM AJ647; details: one partner purified
T3 construct: Nectin-4, endogenous on the surface of urothelial carcinoma cell lines; also called cell surface Nectin-4; Nectin-4 receptor; source: endogenous, on HT1376, UC14, UC9, RT112 and SCaBER cells (and their xenografts)
T3 sequence (looked up): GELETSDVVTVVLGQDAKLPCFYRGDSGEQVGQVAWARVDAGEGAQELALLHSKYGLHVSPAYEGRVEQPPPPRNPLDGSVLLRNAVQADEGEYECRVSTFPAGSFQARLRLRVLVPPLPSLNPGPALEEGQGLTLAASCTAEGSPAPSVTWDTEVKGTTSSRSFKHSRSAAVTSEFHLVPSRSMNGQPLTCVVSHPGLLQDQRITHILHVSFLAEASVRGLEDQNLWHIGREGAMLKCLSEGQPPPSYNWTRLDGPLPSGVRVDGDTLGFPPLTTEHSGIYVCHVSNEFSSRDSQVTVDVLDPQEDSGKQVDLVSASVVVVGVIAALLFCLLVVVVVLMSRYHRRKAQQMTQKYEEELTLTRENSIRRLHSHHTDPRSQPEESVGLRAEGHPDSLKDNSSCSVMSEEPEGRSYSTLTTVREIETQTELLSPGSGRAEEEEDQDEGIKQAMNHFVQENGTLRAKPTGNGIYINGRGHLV

[3] = target: T4, His-Tagged human Nectin-4 (human, UniProt Q96NY8 32-349); test: SPR
T4 chain: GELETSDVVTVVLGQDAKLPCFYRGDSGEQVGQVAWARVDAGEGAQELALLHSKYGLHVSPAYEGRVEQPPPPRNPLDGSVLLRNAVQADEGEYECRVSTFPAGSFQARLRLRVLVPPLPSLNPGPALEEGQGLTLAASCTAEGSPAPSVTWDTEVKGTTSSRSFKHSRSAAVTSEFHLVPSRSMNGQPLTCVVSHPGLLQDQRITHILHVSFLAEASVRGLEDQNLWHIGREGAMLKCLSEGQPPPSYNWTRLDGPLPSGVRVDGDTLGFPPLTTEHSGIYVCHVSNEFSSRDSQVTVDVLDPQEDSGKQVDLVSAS

[4] = target: T5, mouse Nectin-4 (recombinant) (mouse, UniProt Q8R007 31-347); test: SPR
T5 chain: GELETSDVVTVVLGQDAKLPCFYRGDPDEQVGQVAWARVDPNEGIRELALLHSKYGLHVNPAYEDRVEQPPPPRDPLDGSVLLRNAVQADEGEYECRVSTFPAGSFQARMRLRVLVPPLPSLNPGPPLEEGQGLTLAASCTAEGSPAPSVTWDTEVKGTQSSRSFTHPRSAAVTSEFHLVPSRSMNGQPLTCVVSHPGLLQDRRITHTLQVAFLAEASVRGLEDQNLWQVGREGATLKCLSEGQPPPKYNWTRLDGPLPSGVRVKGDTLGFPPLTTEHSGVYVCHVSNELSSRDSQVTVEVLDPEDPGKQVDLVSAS

Kd (mouse Nectin-4): 14.1 ± 3.4 nM
Kd (human Nectin-4): 15 ± 10.1 nM
Molecule: CSCC[C@@H]1NC(=O)[C@@H]2CSCCC(=O)N3CN(CN(C3)C(=O)CCSC[C@H](NC(=O)CCOCCOCCOCCOCCOCCOCCOCCOCCOCCOCCOCCOCCNC(=O)CN3CCN(CC(=O)O)CCN(CC(=O)O)CC3)C(=O)N3CCC[C@H]3C(=O)N[C@@H](Cc3cccc4ccccc34)C(=O)N[C@@H](CC(=O)O)C(=O)N2)C(=O)CCSC[C@@H](C(N)=O)NC(=O)[C@H](Cc2c[nH]c3ccccc23)NC(=O)[C@@H]2C[C@@H](O)CN2C(=O)[C@@H]2CCCN2C(=O)[C@H]([C@@H](C)O)NC(=O)[C@H](CO)NC(=O)[C@H](Cc2c[nH]c3ccccc23)NC(=O)[C@@H](CC(=O)O)NC(=O)[C@H](CCCCNC(=N)N)NC1=O [[^natGa]AJ647, metal not drawn]

koff [3]: 0.0106 s⁻¹
koff [4]: 0.0101 s⁻¹
Molecule: {NOTA-PEG12′}-CP[Nal]DCM[hArg][dD]WSTP[Hyp]WC-NH2 (linker 1-5-15 via TATA; also: natGa complexed in NOTA) [[^natGa]AJ647]

Further lines, the molecule ahead of its results:

Molecule: CSCC[C@@H]1NC(=O)[C@@H]2CSCCC(=O)N3CN(CN(C3)C(=O)CCSC[C@H](NC(=O)CCOCCOCCOCCOCCOCCOCCOCCOCCOCCOCCOCCOCCNC(=O)CN3CCN(CC(=O)O)CCN(CC(=O)O)CC3)C(=O)N3CCC[C@H]3C(=O)N[C@@H](Cc3cccc4ccccc34)C(=O)N[C@@H](CC(=O)O)C(=O)N2)C(=O)CCSC[C@@H](C(N)=O)NC(=O)[C@H](Cc2c[nH]c3ccccc23)NC(=O)[C@@H]2C[C@@H](O)CN2C(=O)[C@@H]2CCCN2C(=O)[C@H]([C@@H](C)O)NC(=O)[C@H](CO)NC(=O)[C@H](Cc2c[nH]c3ccccc23)NC(=O)[C@@H](CC(=O)O)NC(=O)[C@H](CCCCNC(=N)N)NC1=O [[^68Ga]AJ647, metal not drawn]
[^68Ga]AJ647 binding (percent incubated activity) (T24 cells): 0.2±0.11 %IA
tissue to tissue ratio at 0.25 h (in vivo; NSG): 1.31 ± 0.41
tissue to tissue ratio at 1 h (in vivo; NSG): 4.6 ± 1.07
tissue uptake at 2 h (in vivo; Adrenals %IA/g): 3.11 ± 0.21 %ID/g
tissue uptake at 3 h (in vivo; Adrenals %IA/g): 3.01 ± 0.27 %ID/g
tissue uptake at 3 h (in vivo; Brain %IA/g): 0.07 ± 0.01 %ID/g
tissue uptake at 3 h (in vivo; Kidney %IA/g): 24.8 ± 8.74 %ID/g
tissue uptake at 1 h (in vivo; Large Intestine %IA/g): 0.25 ± 0.13 %ID/g
tissue uptake at 2 h (in vivo; Large Intestine %IA/g): 0.18 ± 0.06 %ID/g
tissue uptake at 3 h (in vivo; Large Intestine %IA/g): 0.28 ± 0.13 %ID/g
tissue uptake at 1 h (in vivo; Testicles %IA/g): 0.71 ± 0.24 %ID/g
stability of [^68Ga]AJ647 confirmed [1]: up to 3 hours

Molecule: NH2-PEG12-(Cys-Pro-Nal-Asp-Cys-Met-hArg-dAsp-Trp-Ser-Thr-Pro-Hyp-Trp-Cys)-TATA based cyclization (bicyclic or more) [AJ632]
affinity to Nectin-4 (Nectin-4): low nanomolar

Molecule: {NOTA-PEG12′}-CP[Nal]DCM[hArg][dD]WSTP[Hyp]WC-NH2 (linker 1-5-15 via TATA) [AJ647]
IC50 [2]: 35 nM
